Assay results taken from patent publication US7253149B2, “Compounds and methods for modulating cell-adhesion mediated drug resistance” (University of South Florida, priority 2000, dated 2007).
Where two headings read alike, the source gives them in different places. Marks after values point to notes of the source that are not given here. Where no end group is shown, it is not given here. [ ]: non-standard residue; d: D form.

Key:
K562 cells [1] = type: cell-based
[2] = system: BCR/ABL-associated tyrosine kinase activity; assay: Anti-phosphotyrosine immunoblotting of AG957 treated K562 cells; details: 20 μM AG957, four hours
K562 cells [3] = assay: MTT cytotoxicity assay, FN adhered vs suspension K562 cells; type: cell-based
Experimental: Plastic 96-well Immunosorp plates (Nunc, Denmark) are coated with 50 μl (40 μg/ml) FN (Life Technologies) or BSA overnight. Cells are washed once and resuspended in serum-free RPMI 1640, then 2×10^4 (K562) cells are added to each FN coated well. 8×10^3 (K562) cells are added to BSA coated wells. Cells are incubated for 2 hours at 37° C., washed with serum free media, and put back into serum-containing media. Following 24 hours in a tissue culture incubator, drug or vehicle control is added to each well for 90 minutes, media is removed and replaced by drug-free media for 96 hours. In some experiments, the drug is allowed to remain in each well for 96 hours. 50 μl 3-[4,5-Dimethylthiazol-2-yl]-2,5-diphenyltetrazolium bromide;Thiazolyl blue (MTT dye) (Sigma) is added to each well for 4 hours, plates are centrifuged and each well aspirated. Dye is solubilized with 100 μl DMSO and plates are read at 540 nm on an automated microtiter plate reader. A blank well containing only medium and drug is also run as a control in all experiments. IC50 values are calculated by linear regression analysis of percent survival vs. drug concentration.
The MTT assay is used to detect differences in the drug sensitivity of FN adhered vs. suspension-cultured cells following a 90 minutes or 96 hours (continuous) exposure to either mitoxantrone or melphalan (L-phenylalanine mustard or LPAM). After a 96 hour period in a cell incubator, cell survival is determined by the ability of viable cells to reduce MTT dye to formazan. IC50 values are derived through linear regression of the log-linear dose-response plots for each cell line to each drug. Student's T-test is used to analyze differences in drug response using data collected from at least three different experiments. FIGS. 8A and 8B depict representative continuous exposure experiments using mitoxantrone and LPAM, respectively.

K562 cells [4] = assay: Adhesion of K562 cells to FN in presence of AG957; type: cell-based; details: concentrations of inhibitor used in cytotoxicity assays
Experimental: Cellular adhesion to FN is determined.
The BCR/ABL kinase is believed to be critical to the survival of CML cells through its effects on a number of signal transduction pathways. Inhibitors of this fusion protein show promise as apoptosis-inducing drugs in CML cells. BCR/ABL inhibition by relatively high doses of the tyrphostin AG957 can have negative effects on FN adhesion. At the concentrations of inhibitor used in cytotoxicity assays, the adhesion of K562 cells to FN is not affected by more than 20–40 percent.

[5] = target: integrin α5 subunit (CDw49e) (human) (UniProt P08648); assay: flow cytometry (FACS) on 8226/S cells, FITC-conjugated secondary antibody
[6] = target: integrin α5 subunit (CDw49e) (human) (UniProt P08648); assay: flow cytometry (FACS) on 8226/LR5 cells, FITC-conjugated secondary antibody
[7] = target: VLA-5 (α5β1 integrin) (human) (UniProt P08648); assay: cell-based or functional assay
[8] = target: integrin α5 subunit (CDw49e) (human) (UniProt P08648); assay: flow cytometry (FACS) on 8226/DOX6 cells, FITC-conjugated secondary antibody
[9] = target: integrin β7 subunit (human) (UniProt P26010); assay: flow cytometry (FACS) on 8226/S cells, FITC-conjugated secondary antibody
Chain of UniProt P26010 (P26010 20-798): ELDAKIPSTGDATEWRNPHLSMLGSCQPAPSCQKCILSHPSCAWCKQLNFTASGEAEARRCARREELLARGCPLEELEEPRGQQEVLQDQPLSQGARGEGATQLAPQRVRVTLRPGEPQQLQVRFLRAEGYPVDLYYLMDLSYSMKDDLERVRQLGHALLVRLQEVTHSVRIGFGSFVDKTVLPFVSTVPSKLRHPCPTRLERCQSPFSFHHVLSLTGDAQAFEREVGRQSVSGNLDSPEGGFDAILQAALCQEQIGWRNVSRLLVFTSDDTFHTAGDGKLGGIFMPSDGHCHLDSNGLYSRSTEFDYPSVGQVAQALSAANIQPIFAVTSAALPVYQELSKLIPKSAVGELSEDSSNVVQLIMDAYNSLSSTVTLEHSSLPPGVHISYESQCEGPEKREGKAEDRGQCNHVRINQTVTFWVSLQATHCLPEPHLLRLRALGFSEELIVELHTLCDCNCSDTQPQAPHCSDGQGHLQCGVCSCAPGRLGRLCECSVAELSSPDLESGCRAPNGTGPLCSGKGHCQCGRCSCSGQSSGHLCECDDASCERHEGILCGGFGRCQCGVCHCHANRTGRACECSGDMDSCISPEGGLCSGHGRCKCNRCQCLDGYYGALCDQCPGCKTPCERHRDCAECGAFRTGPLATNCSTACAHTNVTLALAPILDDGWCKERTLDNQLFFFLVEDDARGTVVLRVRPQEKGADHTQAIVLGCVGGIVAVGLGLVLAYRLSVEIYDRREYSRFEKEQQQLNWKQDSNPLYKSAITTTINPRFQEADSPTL

[10] = target: integrin β7 subunit (human) (UniProt P26010); assay: flow cytometry (FACS) on 8226/LR5 cells, FITC-conjugated secondary antibody
[11] = target: integrin β7 subunit (human) (UniProt P26010); assay: flow cytometry (FACS) on 8226/DOX6 cells, FITC-conjugated secondary antibody
8226/S myeloma cells [12] = assay: Annexin V apoptotic analysis, FN-adhered vs non-adhered 8226/S cells; type: cell-based, human; details: 50 uM melphalan, 24 hours
[13] = system: K562/pcDNA3.1 and K562/VLA-4 cells; assay: Annexin V apoptosis analysis of α4 and empty vector transfectants adhered to FN with blocking antibodies; type: cell-based; details: for level of cytoprotection in comparison to drug treated suspension cells: 100 μM LPAM 90 minutes, 24 hours; for protection against melphalan-induced apoptosis: α5 blocking antibody prior to adhesion
8226/S myeloma cells [14] = assay: MTT cytotoxicity assay, FN-adhered vs non-adhered 8226/S cells; type: cell-based, human; details: for IC50: Homo sapiens
8226/S = type: cell-based, human
fibronectin = assay: cell-based or functional assay
[15] = target: integrin α4 subunit (CDw49d) (human) (UniProt P13612); assay: flow cytometry (FACS) on 8226/S cells, FITC-conjugated secondary antibody
[16] = target: integrin α4 subunit (CDw49d) (human) (UniProt P13612); assay: flow cytometry (FACS) on 8226/LR5 cells, FITC-conjugated secondary antibody
[17] = target: integrin α4 subunit (CDw49d) (human) (UniProt P13612); assay: flow cytometry (FACS) on 8226/DOX6 cells, FITC-conjugated secondary antibody
U937 cells = assay: Microtiter adhesion assay, adhesion of U937 cells to fibronectin; type: cell-based; details: 5 μg/ml to 80 μg/ml, FIG. 26

CC[C@]1(O)C[C@H]2CN(CCc3c([nH]c4ccccc34)[C@@](C(=O)OC)(c3cc4c(cc3OC)N(C=O)[C@H]3[C@@](O)(C(=O)OC)[C@H](OC(C)=O)[C@]5(CC)C=CCN6CC[C@]43[C@@H]65)C2)C1 [VCR, vincristine]
FN-mediated protection against the drug (K562 cells [1]; continuous exposure): not significant

Nc1ccn([C@@H]2O[C@H](CO)[C@@H](O)[C@@H]2O)c(=O)n1 [Ara-C]
% Control death (K562 cells [1]): 54.9* % | FN: mean death (K562 cells [1]): 6.2 ± 1.6 | Suspension: mean death (K562 cells [1]): 11.3 ± 5.5

COC(=O)c1ccc(NCc2cc(O)ccc2O)cc1 [AG957]
BCR/ABL associated tyrosine phosphorylation [2]: completely abrogated | fold resistance of FN adhered cells over suspension cells (K562 cells [3]; AG957 for 96 hours): 3.6 | IC50 (K562 cells [3]; AG957 for 96 hours, three independent experiments, read-out: mean IC50 FN adhered cells): 12.9 µM | IC50 (K562 cells [3]; AG957 for 96 hours, three independent experiments, read-out: mean IC50 suspension grown cells): 3.6 µM | effect on adhesion of K562 cells to FN (K562 cells [4]): 20–40%

monoclonal antibody P1D6 (anti-CDw49e, α5)
mean fluorescence intensity [5]: 14.2 | mean fluorescence intensity [6]: 11.9 | level of cytoprotection against melphalan-induced apoptosis in comparison to drug treated suspension cells (Annexin V, flow cytometry) [7]: 0 percent | mean fluorescence intensity [8]: 7.32

monoclonal antibody FIB504 (anti-β7)
mean fluorescence intensity [9]: 5.72 | mean fluorescence intensity [10]: 40.2 | mean fluorescence intensity [11]: 18.5

N[C@@H](Cc1ccc(N(CCCl)CCCl)cc1)C(=O)O [LPAM, L-phenylalanine nitrogen mustard]
IC50 (K562 cells [3]; Homo sapiens, K562, 1.5 h, 90 min. exposure, FN adhered, read-out: Fibronectin mean IC50): 190 µM | IC50 (K562 cells [3]; Homo sapiens, K562, 1.5 h, 90 min. exposure, read-out: Suspension mean IC50): 29.3 µM | IC50 (K562 cells [3]; Homo sapiens, K562, 1.5 h, 90 minutes exposure, text b188, read-out: mean IC50 suspension (printed without exponent and unit)): 29.3 µM | IC50 (K562 cells [3]; Homo sapiens, K562, continuous (96 hours) exposure, FN adhered, read-out: Fibronectin mean IC50): 57.3 µM | IC50 (K562 cells [3]; Homo sapiens, K562, continuous (96 hours) exposure, read-out: Suspension mean IC50): 25.5 µM | Fold resistance FN adhered vs suspension (K562 cells [3]; continuous exposure): 2.25 fold | percentage of apoptotic cells, FN-adhered (8226/S myeloma cells [12]): 16.53% | percentage of apoptotic cells, non-adhered (8226/S myeloma cells [12]): 21.5% | FN: mean death (K562 cells [1]; 100 μM, 1 hr): 11.0 ± 8.3 | Suspension: mean death (K562 cells [1]; 100 μM, 1 hr): 37.5 ± 24.0 | % Control death (K562 cells [1]; 100 μM, 1 hr, FN vs suspension): 29.3* % | FN: mean death (K562 cells [1]; 100 μM, cont. exp.): 23.3 ± 6.4 | Suspension: mean death (K562 cells [1]; 100 μM, cont. exp.): 39.8 ± 3.2 | % Control death (K562 cells [1]; 100 μM, cont. exp., FN vs suspension): 58.5* % | level of cytoprotection in comparison to drug treated suspension cells ([13]; K562/VLA-4 adhering through both α4 and α5): 30.0±1.5% | level of cytoprotection in comparison to drug treated suspension cells ([13]; K562/pcDNA3.1 adhered through α5 alone): 29.9±5.3% | protection against melphalan-induced apoptosis ([13]; K562/VLA-4): 20.6±1.9% | protection against melphalan-induced apoptosis ([13]; K562/pcDNA3.1): 0±11.1% | IC50 (8226/S myeloma cells [14]; read-out: mean IC50 value for FN-adhered cells): 48 µM | IC50 (8226/S myeloma cells [14]; read-out: mean IC50 value for cells grown on BSA): 30 µM | mean difference FN-adhered vs BSA (8226/S myeloma cells [14]; n=3): 1.7 | effect of acute exposure on cell surface integrin expression (8226/S): no immediate effects

COc1cccc2c1C(=O)c1c(O)c3c(c(O)c1C2=O)C[C@@](O)(C(=O)CO)C[C@@H]3O[C@H]1C[C@H](N)[C@H](O)[C@H](C)O1 [doxorubicin, Doxorubicin]
effect of acute exposure on cell surface integrin expression (8226/S; wide range of concentrations, 1–48 hours): no immediate effects

VLA-4 (α4β1 integrin, Very Late Activation Antigen 4) (from UniProt P13612 34-1032; P05556 21-798)
level of cytoprotection against melphalan-induced apoptosis in comparison to drug treated suspension cells (Annexin V, flow cytometry) (fibronectin): 20.6 percent

O=C1c2c(O)ccc(O)c2C(=O)c2c(NCCNCCO)ccc(NCCNCCO)c21 [mitoxantrone]
Fold resistance FN adhered vs suspension (K562 cells [3]; 90 min. exposure): approximately 3.7 fold | Fold resistance FN adhered vs suspension (K562 cells [3]; continuous exposure): 6.8 fold

VLA-5 (α5β1 integrin) (from UniProt P08648 42-1049; P05556 21-798) (receptor)
level of cytoprotection against melphalan-induced apoptosis in comparison to drug treated suspension cells (Annexin V, flow cytometry) (fibronectin): 29.9 percent

monoclonal antibody P4G9 (anti-CDw49d, α4)
mean fluorescence intensity [15]: 10.4 | mean fluorescence intensity [16]: 46.5 | mean fluorescence intensity [17]: 69

kmviywkag ([dK][dM][dV][dI][dY][dW][dK][dA]G) [RZ-3, D-amino acid peptide Lys-Met-Val-Ile-Tyr-Trp-Lys-Ala-Gly, each amino acid a D-amino acid]
effect on adhesion of U937 cells to FN (U937 cells): effective in preventing FN adhesion
